# According to patent publication US20240317683A1, “METHODS OF TREATING MOOD DISORDERS” (priority 2020, published 2024):
# Counter-ions that a name gives are not always drawn. Like-named read-outs stand apart in the source and are kept apart here.
# What was measured:
# [1] = Stability in rat brain homogenate; assay type: in vitro ADME, Sprague Dawley rats; details: for half-life at 1 μM: male, Sprague Dawley; for half-life at 1 μM / % Compound Remaining (after 120 min): rat brain homogenate, 37° C., 1 μM
# Experimental: Rat Brain Homogenate Stability. Frozen rat brain homogenate (pooled from male Sprague Dawley rats, BioreclamationIVT, RATOOBRAINMZA) was thawed in a water bath at 37° C. immediately prior to use. Positive controls and test compounds (final concentration in incubation medium=1 μM for test compounds and 2 μM for controls, all with 2% DMSO) were incubated in duplicate for each time point (0, 10, 30, 60, and 120 min) in the rat brain homogenate at a total reaction volume of 100 μL at 37° C. At the end of each incubation period, reactions were immediately quenched with 400 μL of acetonitrile containing internal standard (200 ng/ml tolbutamine and 200 ng/ml labetalol) and mixed thoroughly. Plates were then sealed, shaken for 20 min, and centrifuged at 4,000 rpm and 4° C. for 20 min. Aliquots of 50 μL of each supernatant were diluted into 100 uL of water and the mixtures were then shaken again for 10 min.
# [2] = system: monoamine oxidase A and B (MAO-A and MAO-B); assay: Stability in the presence of monoamine oxidases (human liver mitochondria); assay type: in vitro ADME; details: for MAO stability (in words): human liver mitochondria preparation; for half-life at 1 μM / microsomal CLint at 1 μM: human liver mitochondria, pH 7.4; for half-life at 1 μM / microsomal CLint at 1 μM / Remaining (t = 60 min): human mitochondrial preparation, 1 μM
# Experimental: Liver Mitochondria Incubations. Human liver mitochondria (Xenotech H0610.M) were used. Mitochondrial incubations were carried out in multi-well plates. […] Six time points over 60 minutes were analyzed.
# [3] = Metabolic stability in rat liver microsomes (RLM); assay type: in vitro ADME; details: both sexes, pooled rat liver microsomes, pH 7.4, NADPH
# Experimental: RLM Stability. Pooled RLM from adult male and female donors (Xenotech R1000) were used. Microsomal incubations were carried out in multi-well plates. […] Control incubations were performed by replacing the NADPH-cofactor system with PBS. Test compounds (1 μM, final solvent concentration 1.0%) were incubated with microsomes at 37° C. with constant shaking. Six time points over 60 minutes were analyzed, with 60 μL aliquots of the reaction mixture being drawn at each time point.
# [4] = target: 5-HT2A (Homo sapiens (Human), UniProt P28223); assay: FLIPR Ca2+ flux agonist assay, 5-HT2A; assay type: cell-based; details: for 5-HT2A % Act @ Max Dose / EC50: HEK293
# Experimental: (§1) A solution of 250 mM probenecid in 1 mL FLIPR assay buffer was prepared fresh. This was combined with a fluorescent dye (Fluo-4 Direct™) to make a final assay concentration of 2.5 mM. […] The fluorescent dye was then added to the assay plate along with assay buffer to a final volume of 40 μL. The cell plate was incubated for 50 min at 37° C. and 5% CO2 and placed into the FLIPR Tetra along with the compound plate. 10 μL of references and compounds were then transferred from the compound plate into the cell plate and the fluorescent signal was read.
# [5] = target: 5-HT1A (Homo sapiens (Human), UniProt P08908); assay: FLIPR Ca2+ flux agonist assay, 5-HT1A; assay type: cell-based
# Experimental: as §1
# [6] = Pharmacokinetics in mice, plasma; assay type: in vivo, C57BL/6 mice
# Experimental: Animals. Male C57BL/6 mice, aged 8-12 weeks, were used in these studies. Four mice were housed in each cage. Temperature and humidity were maintained at 22±3° C. and 30-70%, respectively, and illumination was controlled to give a 12 h light and 12 h dark cycle. Temperature and humidity were recorded by an auto-controlled data logger system. All animals were provided laboratory rodent diet. Reverse osmosis water treated with ultraviolet light was provided ad libitum. Animals were randomly assigned to treatment groups.
# Drugs. Compounds 4 and 5 were prepared as described above. All other compounds were commercially obtained. Test compounds were used as the hydrogen fumarate (1 and 2) or hydrochloride (3, 4, and 5) salts and were dissolved in a vehicle consisting of normal saline. They were then administered intravenously (IV) via the tail vein, subcutaneously (SC), or orally (PO) via gavage at a dose of 1 or 10 mg/kg (calculated based on the free base) and at a volume of 5 ml/kg body weight.
# Sample Collection and Bioanalysis. Blood samples (approximately 60 μL) were collected under light isoflurane anesthesia (Surgivet®) from the retro orbital plexus at 0.08, 0.25, 0.5, 1, 2, 4, 8, and 24 h (4 animals per time point). Immediately after blood collection, plasma was harvested by centrifugation at 4,000 rpm for 10 min at 4° C. and samples were stored at −70±10° C. until bioanalysis. Following blood collection, animals were immediately sacrificed, the abdominal vena-cava was cut open, and the whole body was perfused from the heart using 10 mL of normal saline, and brain samples were collected from all animals. After isolation, brain samples were rinsed three times in ice-cold normal saline (for 5-10 seconds/rinse using ˜5-10 mL normal saline in disposable petri dish for each rinse) and dried on blotting paper. Brain samples were homogenized using ice-cold phosphate-buffered saline (pH 7.4). Total homogenate volume was three times the tissue weight. All homogenates were stored at −70±10° C. until bioanalysis. For bioanalysis, 25 μL aliquots of plasma/brain study samples or spiked plasma/brain calibration standards were added to individual pre-labeled micro-centrifuge tubes followed by 100 μL of an internal standard solution (glipizide, 500 ng/ml in acetonitrile) except for blanks, where 100 μL of acetonitrile was added. Samples were vortexed for 5 minutes and then centrifuged for 10 minutes at 4,000 rpm at 4° C. Following centrifugation, 100 μL of each clear supernatant was transferred to a 96 well plate and analyzed with a fit-for-purpose LC-MS/MS method, with authentic samples of each analyte used for calibration and identification.
# Data Analysis. Pharmacokinetic parameters were estimated using the non-compartmental analysis tool of Phoenix® WinNonlin software (Ver 8.0).
# [7] = Stability in mouse brain homogenate; assay type: in vitro ADME, CD-1 mice; details: for half-life at 1 μM: male, CD-1; for half-life at 1 μM / % Compound Remaining (after 120 min): mouse brain homogenate, 37° C., 1 μM
# Experimental: Mouse Brain Homogenate Stability. Frozen mouse brain homogenate (pooled from male CD-1 mice, BioreclamationIVT, MSE00BRAINMZA) was thawed in a water bath at 37° C. immediately prior to use. Positive controls and test compounds (final concentration in incubation medium=1 μM for test compounds and 2 μM for controls, all with 2% DMSO) were incubated in duplicate for each time point (0, 10, 30, 60, and 120 min) in the mouse brain homogenate at a total reaction volume of […] at 37° C. At the end of each incubation period, reactions were immediately quenched with 400 μL of acetonitrile containing internal standard (200 ng/mL tolbutamine and 200 ng/ml labetalol) and mixed thoroughly. Plates were then sealed, shaken for 20 min, and centrifuged at 4,000 rpm and 4° C. for 20 min. Aliquots of 50 μL of each supernatant were diluted into 100 μL of water and the mixtures were then shaken again for 10 min.
# [8] = male, C57BL/6, mouse plasma, SC, 10 mg/kg
# [9] = male, C57BL/6, mouse plasma, SC, 10 mg/kg, read-out: Cmax
# [10] = male, C57BL/6, mouse plasma, IV, 1 mg/kg
# [11] = male, C57BL/6, mouse plasma, oral, 1 mg/kg
# [12] = male, C57BL/6, mouse plasma, SC, 1 mg/kg
SMILES,stability in rat brain homogenate (in words) [1],half-life at 1 μM [1] [min],% Compound Remaining (after 120 min) [1] [%],MAO stability (in words) [2],half-life at 1 μM [2] [min],microsomal CLint at 1 μM [2] [µL/min/mg],Remaining (t = 60 min) [2] [%],half-life at 1 μM [3] [min],microsomal CLint at 1 μM [3] [µL/min/mg],5-HT2A % Act @ Max Dose [4] [%],EC50 [4] [µM],"5-HT1A % Act @ Max Dose ([5]; Ca2+ flux, CHO cells) [%]","AUC(0-t) [6, 8] [ng·h/mL]","Tmax [6, 8] [min]","half-life [6, 8] [min]","Cmax [6, 9] [ng/mL]",stability in mouse brain homogenate (in words) [7],half-life at 1 μM [7] [min],% Compound Remaining (after 120 min) [7] [%],EC50 [5] [µM],further results
CCN(C)CCc1c[nH]c2cccc(O)c12 [Compound 6],intermediate stability,53,20.9,highly stable,> 145,< 15.9,112.3,50.1,27.7,103.0,0.0151,72.96,1410,4.8,66,1160,intermediate stability,45.8,16.7,,"EC50 ([5]; Ca2+ flux, CHO cells, read-out: 5-HT1A EC50): 14.7 µM"
"CN(C)CCc1c[nH]c2cccc(O)c12 [Psilocin, psilocin, reference compound]",intermediate stability,115,46.1,highly stable,> 145,< 15.9,112.1,75.6,18.3,,,0.720,,,,,high stability,> 289,97.6,> 3.16,"AUC(0-t) [6, 10]: 79.9 ng·h/mL; clearance [6, 10]: 204 mL/min/kg; half-life [6, 10]: 66 min; Cmax ([6]; male, C57BL/6, mouse plasma, IV, 1 mg/kg, read-out: Cmax (C0 back-extrapolated to t = 0)): 195 ng/mL; AUC(0-t) [6, 11]: 51.1 ng·h/mL; Tmax [6, 11]: 10.2 min; half-life [6, 11]: 118 min; Cmax ([6]; male, C57BL/6, mouse plasma, oral, 1 mg/kg, read-out: Cmax): 85.9 ng/mL; F ([6]; mouse, oral, 1 mg/kg, based on plasma AUC0-last): 64%"
"CN(C)CCc1c[nH]c2ccc(F)cc12 [Compound 5, 2-(5-fluoro-1H-indol-3-yl)-N,N-dimethylethan-1-amine hydrochloride]",highly unstable,2.7,0.0,highly metabolized,8.7,266,0.9,9.2,151,,,,247,15,16.2,363,highly unstable,3.1,0.0,,"AUC(0-t) [6, 12]: 11 ng·h/mL; Tmax [6, 12]: 4.8 min; Cmax ([6]; male, C57BL/6, mouse plasma, SC, 1 mg/kg, read-out: Cmax): 41.6 ng/mL"
"CCCN(CC)CCc1c[nH]c2ccc(F)cc12 [Compound 3, N-ethyl-N-(2-(5-fluoro-1H-indol-3-yl)ethyl) propan-1-amine hydrochloride]",high stability,> 289,103.3,highly stable,> 145,< 15.9,97.7,3.2,428,104.1,0.00553,88.34,,,,,high stability,> 289,76.7,19.6,selectivity for 5-HT2A over 5-HT2B (in words) [4]: little selectivity
"CN(C)CCc1c[nH]c2ccccc12 [DMT, N,N-dimethyltryptamine, reference compound]",highly unstable,5.1,0.0,highly metabolized,17.1,135,8.9,10.1,137,93.4,,68.1,,,,,highly unstable,6.4,0.0,,
